In patent US20250268877A1 (BIOGEN MA INC., priority 2020, published 2025):
≈ marks a conversion by molar mass, not a printed value. Read-outs that look alike come from different tables or passages of the source.

Key:
[1] = Kinetic solubility assay (CLND), potassium phosphate buffer pH 6.8; assay type: physicochemical; details: pH 6.8, 2% DMSO, 24 hours at ambient temperature; for solubility kinetic at 24 h / solubility at 24 h: potassium phosphate buffer, kinetic from dmso stock; for solubility kinetic at 24 h: aqueous buffer, comparator table; for solubility at 24 h: pH 6.8, aqueous buffer
IRAK4 = IRAK4 (Homo sapiens (Human), UniProt Q9NWZ3); assay: IRAK4 2-hour 1 mM ATP Biochemical Assay (MesoScale Detection format)
MDR1 = MDR1 (Homo sapiens (Human), UniProt P08183); assay: MDR1-MDCK assay (apparent permeability, efflux ratio); assay type: in vitro ADME; details: human, MDCK-MDR1, 1 μM
[2] = molecular target: catalytical domain of human IRAK4 (a.a. 163-460) (Homo sapiens (Human), UniProt Q9NWZ3); assay: IRAK4 SPR binding assay; details: single-cycle, 1:1 interaction model
[3] = Kpuu assay (in vivo brain-to-plasma partition, unbound); details: intravenous infusion 4 to 24 h, unbound drug partition coefficient; for Kp: brain (unbound) versus plasma (unbound), read-out: Brain Kpu,u
[4] = molecular target: Human MDR1 transfected MDCK cells (Homo sapiens (Human), UniProt P08183); assay: MDR1-MDCK assay (apparent permeability, efflux ratio); assay type: in vitro ADME; details: 1 μM, 120 minutes
[5] = comparator table, read-out: MDR1-MDCK Efflux Ratio
[6] = 100 pM IRAK4, read-out: IRAK4 IC50
[7] = read-out: MDR1-MDCK_Efflux Ratio

Chain of Human MDR1 transfected MDCK cells (P08183 whole entry): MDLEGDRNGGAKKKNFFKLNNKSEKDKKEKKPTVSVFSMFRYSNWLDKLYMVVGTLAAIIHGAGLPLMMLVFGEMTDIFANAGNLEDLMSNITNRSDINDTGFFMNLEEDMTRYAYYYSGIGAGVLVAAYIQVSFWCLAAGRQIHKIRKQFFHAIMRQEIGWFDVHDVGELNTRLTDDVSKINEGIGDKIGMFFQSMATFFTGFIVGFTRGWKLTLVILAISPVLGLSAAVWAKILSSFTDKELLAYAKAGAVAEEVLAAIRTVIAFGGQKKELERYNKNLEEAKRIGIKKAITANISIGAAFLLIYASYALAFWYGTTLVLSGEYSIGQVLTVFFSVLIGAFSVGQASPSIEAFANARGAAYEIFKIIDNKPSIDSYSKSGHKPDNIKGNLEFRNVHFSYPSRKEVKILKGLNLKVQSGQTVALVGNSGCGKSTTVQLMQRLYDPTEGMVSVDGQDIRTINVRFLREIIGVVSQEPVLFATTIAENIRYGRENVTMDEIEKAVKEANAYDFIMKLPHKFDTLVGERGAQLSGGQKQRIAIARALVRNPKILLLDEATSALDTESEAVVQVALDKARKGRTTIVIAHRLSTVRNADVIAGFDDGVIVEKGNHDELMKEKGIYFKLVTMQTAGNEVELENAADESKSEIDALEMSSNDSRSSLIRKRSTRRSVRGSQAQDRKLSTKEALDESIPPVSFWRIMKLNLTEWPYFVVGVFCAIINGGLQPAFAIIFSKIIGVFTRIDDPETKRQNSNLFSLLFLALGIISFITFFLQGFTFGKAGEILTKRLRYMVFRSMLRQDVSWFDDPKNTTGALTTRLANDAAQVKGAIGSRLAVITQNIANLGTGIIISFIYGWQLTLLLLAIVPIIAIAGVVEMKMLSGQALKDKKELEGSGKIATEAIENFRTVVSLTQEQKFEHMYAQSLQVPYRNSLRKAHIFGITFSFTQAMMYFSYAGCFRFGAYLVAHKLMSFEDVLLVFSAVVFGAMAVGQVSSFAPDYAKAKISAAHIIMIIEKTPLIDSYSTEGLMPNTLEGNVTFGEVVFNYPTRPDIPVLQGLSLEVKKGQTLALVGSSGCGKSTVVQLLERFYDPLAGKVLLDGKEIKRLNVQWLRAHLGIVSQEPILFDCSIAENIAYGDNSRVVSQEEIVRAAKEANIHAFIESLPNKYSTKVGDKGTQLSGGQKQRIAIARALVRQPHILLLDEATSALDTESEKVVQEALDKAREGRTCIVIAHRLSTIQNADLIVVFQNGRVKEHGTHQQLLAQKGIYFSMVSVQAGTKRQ
Chain of MDR1 (P08183 whole entry, the tested form may be a part): as the sequence (P08183 whole entry) above
Chain of catalytical domain of human IRAK4 (a.a. 163-460) (Q9NWZ3 163-460): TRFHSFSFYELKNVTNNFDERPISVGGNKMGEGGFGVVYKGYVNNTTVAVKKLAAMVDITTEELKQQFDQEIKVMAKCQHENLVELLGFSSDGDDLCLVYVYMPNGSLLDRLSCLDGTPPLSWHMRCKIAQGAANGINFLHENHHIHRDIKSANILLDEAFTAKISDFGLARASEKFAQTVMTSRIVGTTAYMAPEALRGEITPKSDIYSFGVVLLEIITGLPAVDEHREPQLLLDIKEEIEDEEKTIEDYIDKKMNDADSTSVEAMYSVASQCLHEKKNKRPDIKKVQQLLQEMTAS
Chain of IRAK4 (Q9NWZ3 whole entry): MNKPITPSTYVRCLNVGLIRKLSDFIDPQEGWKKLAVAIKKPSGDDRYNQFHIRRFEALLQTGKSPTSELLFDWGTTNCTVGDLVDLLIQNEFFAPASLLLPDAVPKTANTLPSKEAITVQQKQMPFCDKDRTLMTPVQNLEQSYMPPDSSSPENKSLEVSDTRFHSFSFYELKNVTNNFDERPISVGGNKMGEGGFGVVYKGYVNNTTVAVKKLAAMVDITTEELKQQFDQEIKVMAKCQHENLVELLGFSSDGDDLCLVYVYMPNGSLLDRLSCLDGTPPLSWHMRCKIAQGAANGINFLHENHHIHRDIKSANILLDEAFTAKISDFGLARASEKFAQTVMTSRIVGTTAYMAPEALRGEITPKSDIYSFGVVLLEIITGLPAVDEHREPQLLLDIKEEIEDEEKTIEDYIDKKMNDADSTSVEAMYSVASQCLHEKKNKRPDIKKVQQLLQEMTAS

| Compound | solubility at 24 h [1] | IC50 (IRAK4; [6]) | efflux ratio at 120 min, 1 μM (MDR1; [7]) | IRAK4 SPR binding Half Life [2] | Kp [3] | other results |
| --- | --- | --- | --- | --- | --- | --- |
| CC(C)Oc1nc2nn([C@]34CC[C@](C)(C3)OC4)cc2cc1C(=O)Nc1cccn(C)c1=O (single isomer, unassigned) [Comparator 1C, reference compound] |  |  |  |  |  | solubility kinetic at 24 h [1]: 44.3 µg/mL (≈ 101 µM); IC50 (IRAK4; 100 pM IRAK4, comparator table, read-out: IRAK4 Biochemical IC50): 400 pM; efflux ratio at 120 min, 1 μM (MDR1; [5]): 1.2; IRAK4 SPR binding Half Life ([2]; comparator table): 27.1 min; Kp ([3]; comparator table): 1.3 |
| C[C@]12CC[C@](n3cc4cc(C(=O)Nc5cccn(C6CC6)c5=O)c(OC5CCC5)cc4n3)(CO1)C2 (single isomer, unassigned) [Example 41] | 19.7 µg/mL (≈ 41.5 µM) | 200 pM | 1.71 | 31.6 min |  | Brain Kpu,u [3]: 0.9 |
| CC(C)Oc1nc2nn([C@@]34CC[C@@](C)(C3)OC4)cc2cc1C(=O)Nc1cccn(C2CC2)c1=O (single isomer, unassigned) [Example 47] | 1.09 µg/mL (≈ 2.35 µM) | 200 pM | 2.04 | 54 min | 1.6 |  |
| CC(C)Oc1cc2nn([C@]34CC[C@](C)(C3)OC4)cc2cc1C(=O)Nc1cccn([C@H]2C[C@H]2F)c1=O (single isomer, unassigned) [Example 51] | 42.3 µg/mL (≈ 88 µM) | 100 pM | 3.47 | 139 min | 0.4 |  |
| C[C@@H]1C[C@@H]1n1cccc(NC(=O)c2cc3cn([C@@]45CC[C@@H](C4)OC5)nc3nc2OC2CC2)c1=O (single isomer, unassigned) [Example 94] |  | 600 pM |  |  |  | Solubility pH 6.8 [1]: 14.7 ug/mL; MDR1-MDCK_Efflux Ratio [4]: 2.73 |
| CC(C)Oc1cc2nn(C34COC(C)(C3)C4)cc2cc1C(=O)Nc1cccn(C)c1=O [Comparator 1A, 6-isopropoxy-N-(1-methyl-2-oxo-1,2-dihydropyridin-3-yl)-2-(1-methyl-2-oxabicyclo[2.1.1]hexan-4-yl)-2H-indazole-5-carboxamide, reference compound] |  |  |  |  |  | solubility kinetic at 24 h [1]: 60 µg/mL (≈ 142 µM); efflux ratio at 120 min, 1 μM (MDR1; [5]): 1.2; IRAK4 SPR binding Half Life ([2]; comparator table): 9.0 min; Kp ([3]; comparator table): 1 |
| CC(C)Oc1cc2nn([C@@]34CC[C@@](C)(C3)OC4)cc2cc1C(=O)Nc1cccn(C2CC2)c1=O [Example 2, N-(1-cyclopropyl-2-oxo-1,2-dihydropyridin-3-yl)-6-isopropoxy-2-((1S,4S)-1-methyl-2-oxabicyclo[2.2.1]heptan-4-yl)-2H-indazole-5-carboxamide] | 51.7 µg/mL (≈ 112 µM) | 400 pM | 1.58 | 52.85 min | 0.9 |  |
| CC12CC(n3cc4cc(C(=O)Nc5cccn([C@H]6C[C@H]6F)c5=O)c(OC5CCC5)nc4n3)(CO1)C2 [Example 27, 6-cyclobutoxy-N-(1-((1S,2R)-2-fluorocyclopropyl)-2-oxo-1,2-dihydropyridin-3-yl)-2-(1-methyl-2-oxabicyclo[2.1.1]hexan-4-yl)-2H-pyrazolo[3,4-b]pyridine-5-carboxamide] | 1.2 µg/mL (≈ 2.5 µM) | 100 pM | 5.38 |  | 0.7 |  |
| CC(C)Oc1cc2nn([C@@]34CC[C@@](C)(C3)OC4)cc2cc1C(=O)Nc1cccn([C@H]2C[C@H]2F)c1=O [Example 50, N-(1-((1S,2R)-2-fluorocyclopropyl)-2-oxo-1,2-dihydropyridin-3-yl)-6-isopropoxy-2-((1S,4S)-1-methyl-2-oxabicyclo[2.2.1]heptan-4-yl)-2H-indazole-5-carboxamide] | 40.5 µg/mL (≈ 84.3 µM) | 100 pM | 2.75 | 138 min | 0.4 |  |
| CC(C)Oc1cc2nn(C34COC(CF)(C3)C4)cc2cc1C(=O)Nc1cccn([C@H]2C[C@H]2F)c1=O [Example 52, N-(1-((1S,2R)-2-fluorocyclopropyl)-2-oxo-1,2-dihydropyridin-3-yl)-2-(1-(fluoromethyl)-2-oxabicyclo[2.1.1]hexan-4-yl)-6-isopropoxy-2H-indazole-5-carboxamide] | 38.4 µg/mL (≈ 79.3 µM) | 200 pM | 5.16 | 70.7 min | 0.3 |  |
| CC(C)Oc1cc2nn(C34COC(C3)C4)cc2cc1C(=O)Nc1cccn([C@H]2C[C@H]2F)c1=O [Example 68, 2-(2-oxabicyclo[2.1.1]hexan-4-yl)-N-(1-((1S,2R)-2-fluorocyclopropyl)-2-oxo-1,2-dihydropyridin-3-yl)-6-isopropoxy-2H-indazole-5-carboxamide] | 45.3 µg/mL (≈ 100 µM) | 200 pM | 8.61 |  | 0.4 |  |
| CC12CC(n3cc4cc(C(=O)Nc5cccn([C@H]6C[C@H]6F)c5=O)c(OC5CC5)nc4n3)(CO1)C2 [Example 85, 6-cyclopropoxy-N-(1-((1S,2R)-2-fluorocyclopropyl)-2-oxo-1,2-dihydropyridin-3-yl)-2-(1-methyl-2-oxabicyclo[2.1.1]hexan-4-yl)-2H-pyrazolo[3,4-b]pyridine-5-carboxamide] | 20.1 µg/mL (≈ 43.2 µM) | 200 pM | 7.21 | 48 min | 0.3 |  |
| C[C@@H]1C[C@@H]1n1cccc(NC(=O)c2cc3cn(C45COC(CF)(C4)C5)nc3nc2OC2CC2)c1=O [Example 92] |  | 1700 pM |  |  |  | Solubility pH 6.8 [1]: 12.8 ug/mL; MDR1-MDCK_Efflux Ratio [4]: 5.77 |

Second part, led by results:

| solubility at 24 h [1] | IC50 (IRAK4; [6]) | efflux ratio at 120 min, 1 μM (MDR1; [7]) | IRAK4 SPR binding Half Life [2] | Kp [3] | Compound | other results |
| --- | --- | --- | --- | --- | --- | --- |
| 1.48 µg/mL (≈ 3.19 µM) | 200 pM | 1.73 | 58 min |  | CC(C)Oc1nc2nn([C@]34CC[C@](C)(C3)OC4)cc2cc1C(=O)Nc1cccn(C2CC2)c1=O (single isomer, unassigned) [Example 48] |  |
| 58.9 µg/mL (≈ 118 µM) | 400 pM | 4.35 | 47.2 min |  | COCC12CC(n3cc4cc(C(=O)Nc5cccn([C@H]6C[C@@H]6F)c5=O)c(OC(C)C)nc4n3)(CO1)C2 (single isomer, unassigned) [Example 64] |  |
| 13.9 µg/mL (≈ 28.1 µM) | 200 pM | 18.7 | 74 min |  | COCC12CC(n3cc4cc(C(=O)Nc5cccn([C@H]6C[C@H]6F)c5=O)c(OC5CC5)nc4n3)(CO1)C2 (single isomer, unassigned) [Example 86] |  |
| 18.7 µg/mL (≈ 41.6 µM) | 300 pM | 3.26 | 80.4 min | 0.8 | CC(C)Oc1nc2nn(C34COC(C)(C3)C4)cc2cc1C(=O)Nc1cccn(C2CC2)c1=O [Example 9, N-(1-cyclopropyl-2-oxo-1,2-dihydropyridin-3-yl)-6-isopropoxy-2-(1-methyl-2-oxabicyclo[2.1.1]hexan-4-yl)-2H-pyrazolo[3,4-b]pyridine-5-carboxamide] |  |
| 22.7 µg/mL (≈ 48.5 µM) | 200 pM | 3.4 | 73.4 min | 0.6 | CC(C)Oc1nc2nn(C34COC(CF)(C3)C4)cc2cc1C(=O)Nc1cccn(C2CC2)c1=O [Example 10, N-(1-cyclopropyl-2-oxo-1,2-dihydropyridin-3-yl)-2-(1-(fluoromethyl)-2-oxabicyclo[2.1.1]hexan-4-yl)-6-isopropoxy-2H-pyrazolo[3,4-b]pyridine-5-carboxamide] |  |
| 62.3 µg/mL (≈ 125 µM) | 100 pM | 9.67 |  | 0.4 | COCC12CC(n3cc4cc(C(=O)Nc5cccn([C@H]6C[C@H]6F)c5=O)c(OC(C)C)nc4n3)(CO1)C2 [Example 49, N-(1-((1S,2R)-2-fluorocyclopropyl)-2-oxo-1,2-dihydropyridin-3-yl)-6-isopropoxy-2-(1-(methoxymethyl)-2-oxabicyclo[2.1.1]hexan-4-yl)-2H-pyrazolo[3,4-b]pyridine-5-carboxamide] |  |
| 51 µg/mL (≈ 103 µM) | 400 pM | 2.09 |  | 0.9 | COCC12CC(n3cc4cc(C(=O)Nc5cccn([C@H]6C[C@H]6C)c5=O)c(OC(C)C)nc4n3)(CO1)C2 [Example 77, 6-isopropoxy-2-(1-(methoxymethyl)-2-oxabicyclo[2.1.1]hexan-4-yl)-N-(1-((1S,2R)-2-methylcyclopropyl)-2-oxo-1,2-dihydropyridin-3-yl)-2H-pyrazolo[3,4-b]pyridine-5-carboxamide] |  |
| 32.4 µg/mL (≈ 72.1 µM) | 500 pM | 4.42 |  | 1 | CC(C)Oc1nc2nn(C34COC(C3)C4)cc2cc1C(=O)Nc1cccn([C@H]2C[C@H]2C)c1=O [Example 80, 2-(2-oxabicyclo[2.1.1]hexan-4-yl)-6-isopropoxy-N-(1-((1S,2R)-2-methylcyclopropyl)-2-oxo-1,2-dihydropyridin-3-yl)-2H-pyrazolo[3,4-b]pyridine-5-carboxamide] |  |
|  | 37000 pM |  |  |  | CC(C)Oc1cc2nn(C34COC(CF)(C3)C4)cc2cc1C(=O)Nc1cccn([C@@H]2C[C@@H]2C)c1=O [Example 81, 2-(1-(fluoromethyl)-2-oxabicyclo[2.1.1]hexan-4-yl)-6-isopropoxy-N-(1-((1R,2S)-2-methylcyclopropyl)-2-oxo-1,2-dihydropyridin-3-yl)-2H-indazole-5-carboxamide] | MDR1-MDCK_Efflux Ratio [4]: 1.95 |
